Holding throughout (type): physicochemical
Series [1] in a line: Thermo-dynamical stability: conversion to other solid state forms under heating, measured by XRPD. The settings on record: heating up to 200° C. at 10° C./minute, defined as less than 20%, 5%, 1%, or 0.5% conversion to any other solid state form by XRPD. As for the experimental part:
As used herein the term “thermo-dynamical stability” in relation to crystalline Eltrombopag form I refers to less than 20%, 10%, 5%, 1%, or 0.5% conversion of crystalline Eltrombopag form Ito any other solid state form of Eltrombopag under heating up to temperature of 200° C. at a heating rate of 10° C./minute, as measured by XRPD. In some embodiments, the conversion is 1%-20%, 1%-10% or 1%-5%.

Series [2] in a line: Solubility.
Series [3] is described as follows: Hygroscopicity: absorption of atmospheric water, measured by TGA. Particulars: relative humidity of 80%, 100% at room temperature, non-hygroscopic = less than 0.2% (w/w) absorption of atmospheric water by TGA. An excerpt: As used herein the term non-hygroscopic in relation to crystalline Eltrombopag refers to less than 0.2% (w/w) absorption of atmospheric water to the crystalline Eltrombopag in the above specified conditions, as measured by TGA.

This is an account of results in patent US8372822B2, “Polymorphs of eltrombopag and eltrombopag salts and processes for preparation thereof” (Pliva Hrvatska D.O.O., priority 2009, dated 2013).

`CC1=NN(c2ccc(C)c(C)c2)C(=O)/C1=N\Nc1cccc(-c2cccc(C(=O)O)c2)c1O` [Eltrombopag form I]: the thermo-dynamical stability entry in series [1] was “advantageous”. The solubility result in series [2] (medium not stated) is “advantageous”.
As to `CC1=NN(c2ccc(C)c(C)c2)C(=O)/C1=N\Nc1cccc(-c2cccc(C(=O)O)c2)c1O` [Eltrombopag bisethanolamine form II], the solubility in water entry in series [2] (water) is “highly soluble in water”.
Consider `CC1=NN(c2ccc(C)c(C)c2)C(=O)/C1=N\Nc1cccc(-c2cccc(C(=O)O)c2)c1O` [Eltrombopag form XVI], for which, in series [3] (at least 5 months), the hygroscopicity entry is “non-hygroscopic”.
Consider `CC1=NN(c2ccc(C)c(C)c2)C(=O)/C1=N\Nc1cccc(-c2cccc(C(=O)O)c2)c1O` [Eltrombopag form III], for which the hygroscopicity entry in series [3] (at least 10 months) is given as “non-hygroscopic”.
